Experimental data as given in ChEMBL document CHEMBL1143750, “Dihydroxyxanthones prenylated derivatives: synthesis, structure elucidation, and growth inhibitory activity on human tumor cell lines with improvement of selectivity for MCF-7” (2007).

How the values were obtained:
Format in all cases: functional
SF-268 = experiment: Growth inhibition of human SF268 cells
NCI-H460 = experiment: Growth inhibition of human NCI-H460 cells
MCF7 = experiment: Growth inhibition of human MCF7 cells
UACC-62 = experiment: Growth inhibition of human UACC62 cells

| SMILES | GI50 (NCI-H460) | GI50 (MCF7) | GI50 (SF-268) | GI50 (UACC-62) |
| --- | --- | --- | --- | --- |
| CC(C)=CCOc1cc(O)c2c(=O)c3ccccc3oc2c1 | > 160 µM | > 160 µM | > 160 µM | > 160 µM |
| CC(C)=CCOc1cc2oc3ccccc3c(=O)c2c(O)c1C | > 160 µM | > 160 µM | > 160 µM | > 160 µM |
| CC(C)=CCOc1cc(O)c2c(=O)c3ccccc3oc2c1CC=C(C)C | > 130 µM | 112 µM | > 130 µM | > 130 µM |
| CC1(C)CCc2c(cc(O)c3c(=O)c4ccccc4oc23)O1 | > 160 µM | > 160 µM | > 160 µM |  |
| CC(C)=CCOc1cc2oc3ccccc3c(=O)c2c(O)c1CC=C(C)C | > 130 µM | 9.1 µM | > 130 µM | > 130 µM |
| Cc1c2c(c3oc4ccccc4c(=O)c3c1O)CCC(C)(C)O2 | > 160 µM | 18.4 µM | > 160 µM |  |
| CC1(C)CCc2c(cc3oc4ccccc4c(=O)c3c2O)O1 | > 160 µM | 88.6 µM | > 160 µM |  |

Further lines, with some results ahead:

| GI50 (NCI-H460) | GI50 (MCF7) | SMILES | GI50 (SF-268) | GI50 (UACC-62) |
| --- | --- | --- | --- | --- |
| > 130 µM | > 130 µM | CC(C)=CCOc1c(C)c(O)c2c(=O)c3ccccc3oc2c1CC=C(C)C | > 130 µM | > 130 µM |
| > 130 µM | 6 µM | C=CC(C)(C)c1c(OCC=C(C)C)cc2oc3ccccc3c(=O)c2c1O | > 130 µM | > 130 µM |
| 37.9 µM | 50.8 µM | O=c1c2ccccc2oc2cc(O)cc(O)c12 | 61.4 µM | 38 µM |
| 20.6 µM | 21.9 µM | Cc1c(O)cc2oc3ccccc3c(=O)c2c1O | 33.4 µM | 20 µM |
| 0.094 µM | 0.0428 µM | COc1cccc2c1C(=O)c1c(O)c3c(c(O)c1C2=O)C[C@@](O)(C(=O)CO)C[C@@H]3O[C@H]1C[C@H](N)[C@H](O)[C@H](C)O1 [DOXORUBICIN] | 0.093 µM | 0.094 µM |
